Results from patent publication US20240400555A1 (Initial Therapeutics, Inc., priority 2023, published 2024).
pIC50: −log10 of the molar value.

What follows are molecules tested on MV-4-11 cells (assay: Cell Viability Assay in MV-4-11 Cells). Conditions: Homo sapiens, MV4-11, 72 h.
Assay type: cell-based
Method in brief: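 MV-4-11 cells at 7,000/well in IMDM with 10% FBS, exposed to compound for 72 h. Viability by CellTiter-Glo luminescence, normalized to DMSO as 100%, fitted with a four-parameter curve.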

Question: CC(C)(O)C#Cc1cc2c(N(C(=O)c3ccc(-n4nnc5cccnc54)cc3F)[C@@H]3CCCNC3)nccc2s1 [Example 376, 2-fluoro-N-[2-(3-hydroxy-3-methyl-but-1-ynyl)thieno[3,2-c]pyridin-4-yl]-N-[(3R)-3-piperidyl]-4-(triazolo[4,5-b]pyridin-3-yl)benzamide] was tested. Which pIC50 did it give?
Answer: 6.17

Same assay, conditions: Homo sapiens, MV4-11, 72 h, MV-4-11 cells, 72 h, Cell-Titer Glo; read-out: IC50

Question: With Cc1ccc(F)c2ccnc(N(C(=O)c3ccc(Nc4ncccn4)cc3F)[C@@H]3CCCNC3)c12 [Example 661, (R)-2-fluoro-N-(5-fluoro-8-methylisoquinolin-1-yl)-N-(piperidin-3-yl)-4-(pyrimidin-2-ylamino)benzamide] as the molecule, how does the pIC50 read?
Answer: 6.77

Question: How did the pIC50 turn out when Cc1cccc2ccnc(N(C(=O)c3ccc(-c4cn(C)nn4)cc3F)[C@H]3CNCC[C@@H]3C)c12 [Example 441, 2-fluoro-N-(8-methyl-1-isoquinolyl)-N-[(3R, 4S)-4-methyl-3-piperidyl]-4-(1-methyltriazol-4-yl) benzamide] was run?
Answer: 6.92

Question: With CCOCc1nnc(-c2ccc(C(=O)N(c3nccc4cc(F)cc(C)c34)[C@@H]3CCCNC3)c(F)c2)s1 [Example 854, 4-[5-(ethoxymethyl)-1,3,4-thiadiazol-2-yl]-2-fluoro-N-(6-fluoro-8-methyl-1-isoquinolyl)-N-[(3R)-3-piperidyl]benzamide] as the molecule, how does the pIC50 read?
Answer: 7.10

Question: With Cc1cc(Cl)cc2ccnc(N(C(=O)c3ccc(-n4nnc5cccnc54)cc3F)[C@@H]3CCCNC3)c12 [Example 615, N-(6-chloro-8-methyl-1-isoquinolyl)-2-fluoro-N-[(3R)-3-piperidyl]-4-(triazolo[4,5-b]pyridin-3-yl)benzamide] as the molecule, how does the pIC50 read?
Answer: 7.77

Question: With Cc1cccc2ccnc(N(C(=O)c3ccc(Nc4nccc(C5=CCN(C)CC5)n4)cc3F)[C@@H]3CCCNC3)c12 [Example 682, (R)-2-fluoro-4-((4-(1-methyl-1,2,3,6-tetrahydropyridin-4-yl)pyrimidin-2-yl)amino)-N-(8-methylisoquinolin-1-yl)-N-(piperidin-3-yl)benzamide] as the molecule, how does the pIC50 read?
Answer: 7.08

Question: With Cc1ccc(F)c2ccnc(N(C(=O)c3ccc(-c4cn(C)nn4)cc3)[C@@H]3CCCNC3)c12 [Example 656, (R)—N-(5-fluoro-8-methylisoquinolin-1-yl)-4-(1-methyl-1H-1,2,3-triazol-4-yl)-N-(piperidin-3-yl)benzamide] as the molecule, how does the pIC50 read?
Answer: 6.74

Question: Cc1cccc2ccnc(N(C(=O)c3ccc(Nc4nccc(N5CCOCC5=O)n4)cc3F)[C@@H]3CCCNC3)c12 [Example 937, (R)-2-fluoro-N-(8-methylisoquinolin-1-yl)-4-(4-(3-oxomorpholino)pyrimidin-2-ylamino)-N-(piperidin-3-yl)benzamide] was tested. Which pIC50 did it give?
Answer: 7.30

Question: Cc1c(-c2ccc(C(=O)N(c3nccc4sc(-c5ccc(C(N)=O)cc5)cc34)[C@@H]3CCCNC3)c(F)c2)cnn1C [Example 612, (R)—N-(2-(4-carbamoylphenyl)thieno[3,2-c]pyridin-4-yl)-4-(1,5-dimethyl-1H-pyrazol-4-yl)-2-fluoro-N-(piperidin-3-yl)benzamide] was tested. Which pIC50 did it give?
Answer: 6.55

Question: How did the pIC50 turn out when Cn1cc(/C=C/c2ccnc(N(C(=O)c3ccc(-n4nnc5cccnc54)cc3F)[C@@H]3CCCNC3)c2)cn1 [Example 430, 2-fluoro-N-[4-[(E)-2-(1-methylpyrazol-4-yl)vinyl]-2-pyridyl]-N-[(3R)-3-piperidyl]-4-(triazolo[4,5-b]pyridin-3-yl)benzamide] was run?
Answer: 6.19

Question: With Cc1cc(Cl)cc2ccnc(N(C(=O)c3ccc(-c4cn(C)nn4)cc3Cl)[C@@H]3CCCNC3)c12 [Example 816, (R)-2-chloro-N-(6-chloro-8-methylisoquinolin-1-yl)-4-(1-methyl-1H-1,2,3-triazol-4-yl)-N-(piperidin-3-yl)benzamide] as the molecule, how does the pIC50 read?
Answer: 6.85

Question: With CCc1nnc(-c2ccc(C(=O)N(c3nccc4cc(Cl)cc(C)c34)[C@@H]3CCCNC3)c(F)c2)o1 [Example 654, (R)—N-(6-chloro-8-methylisoquinolin-1-yl)-4-(5-ethyl-1,3,4-oxadiazol-2-yl)-2-fluoro-N-(piperidin-3-yl)benzamide] as the molecule, how does the pIC50 read?
Answer: 6.82

Question: With [2H]C([2H])([2H])n1cc(-c2ccc(C(=O)N(c3nccc4cc(F)cc(C)c34)[C@@H]3CCCNC3)c(F)c2)nn1 [Example 891, 2-fluoro-N-(6-fluoro-8-methyl-1-isoquinolyl)-N-[(3R)-3-piperidyl]-4-[1-(trideuteriomethyl)triazol-4-yl]benzamide] as the molecule, how does the pIC50 read?
Answer: 7.36

Question: With Cn1cc(-c2ccc(C(=O)N(c3nccc4sc(-c5ccnc(N)c5)cc34)[C@@H]3CCCNC3)c(F)c2)nn1 [Example 478, (R)—N-(2-(2-aminopyridin-4-yl)thieno[3,2-c]pyridin-4-yl)-2-fluoro-4-(1-methyl-1H-1,2,3-triazol-4-yl)-N-(piperidin-3-yl)benzamide] as the molecule, how does the pIC50 read?
Answer: 6.47

Question: With Cn1cc(-c2ccc(C(=O)N(c3nccc4cc(Cc5ccccc5)ccc34)[C@@H]3CCCNC3)c(F)c2)nn1 [Example 609, (R)—N-(6-benzylisoquinolin-1-yl)-2-fluoro-4-(1-methyl-1H-1,2,3-triazol-4-yl)-N-(piperidin-3-yl)benzamide] as the molecule, how does the pIC50 read?
Answer: 6.40

Question: CC(C)(C#N)c1cc(-c2cc3c(N(C(=O)c4ccc(-n5nnc6cccnc65)cc4F)[C@@H]4CCCNC4)nccc3s2)ccn1 [Example 463] was tested. Which pIC50 did it give?
Answer: 6.49

Question: With COc1ccc(F)c2c(N(C(=O)c3ccc(-c4cn(C)nn4)cc3)[C@@H]3CCCNC3)nccc12 [Example 873, N-(8-fluoro-5-methoxy-1-isoquinolyl)-4-(1-methyltriazol-4-yl)-N-[(3R)-3-piperidyl] benzamide] as the molecule, how does the pIC50 read?
Answer: < 5.28

Question: With Cc1sc2ccnc(N(C(=O)c3ccc(-n4nnc5cccnc54)cc3F)[C@@H]3CCCNC3)c2c1C [Example 820, (R)-4-(3H-[1,2,3]triazolo[4,5-b]pyridin-3-yl)-N-(2,3-dimethylthieno[3,2-c]pyridin-4-yl)-2-fluoro-N-(piperidin-3-yl)benzamide] as the molecule, how does the pIC50 read?
Answer: 6.66

Question: How did the pIC50 turn out when CNC(=O)c1ccc(-c2cc3c(N(C(=O)c4ccc(-n5nnc6cccnc65)cc4F)[C@@H]4CCCNC4)nccc3s2)cc1 [Example 380, 2-fluoro-N-[2-[4-(methylcarbamoyl)phenyl]thieno[3,2-c]pyridin-4-yl]-N-[(3R)-3-piperidyl]-4-(triazolo[4,5-b]pyridin-3-yl)benzamide] was run?
Answer: 6.92

Question: With Cc1cc(-c2cnn(C)c2)cc2ccnc(N(C(=O)c3ccc(-c4cn(C)nn4)cc3F)[C@@H]3CCCNC3)c12 [Example 845, 2-fluoro-N-[8-methyl-6-(1-methylpyrazol-4-yl)-1-isoquinolyl]-4-(1-methyltriazol-4-yl)-N-[(3R)-3-piperidyl]benzamide] as the molecule, how does the pIC50 read?
Answer: 7.16

Question: How did the pIC50 turn out when Cc1csc2ccnc(N(C(=O)c3ccc(-c4nnn5c4CN(C)CC5)cc3F)[C@@H]3CCCNC3)c12 [Example 923, 2-fluoro-4-(5-methyl-6,7-dihydro-4H-triazolo[1,5-a]pyrazin-3-yl)-N-(3-methylthieno[3,2-c]pyridin-4-yl)-N-[(3R)-3-piperidyl]benzamide] was run?
Answer: < 6.00

Question: With Cc1csc2ccnc(N(C(=O)c3ccc(Nc4ncccn4)cc3F)[C@@H]3CCCNC3)c12 [Example 468, (R)-2-fluoro-N-(3-methylthieno[3,2-c]pyridin-4-yl)-N-(piperidin-3-yl)-4-(pyrimidin-2-ylamino)benzamide] as the molecule, how does the pIC50 read?
Answer: 6.92

Question: With Cc1cccc2ccnc(N(C(=O)c3ccc(Nc4ncccn4)cc3)[C@@H]3CCCNC3)c12 [Example 309, (R)—N-(8-methylisoquinolin-1-yl)-N-(piperidin-3-yl)-4-(pyrimidin-2-ylamino)benzamide] as the molecule, how does the pIC50 read?
Answer: 6.55

Question: With Cc1cccc2ccnc(N(C(=O)c3ccc(Nc4nccc(N5CC[C@H](O)C5)n4)cc3F)[C@@H]3CCCNC3)c12 [Example 625, 2-fluoro-4-((4-((S)-3-hydroxypyrrolidin-1-yl)pyrimidin-2-yl)amino)-N-(8-methylisoquinolin-1-yl)-N—((R)-piperidin-3-yl)benzamide] as the molecule, how does the pIC50 read?
Answer: 7.70

Question: Nc1cc(-c2cc3c(N(C(=O)c4ccc(-n5nnc6cccnc65)cc4F)[C@@H]4CCCNC4)nccc3s2)ccn1 [Example 383, N-[2-(2-amino-4-pyridyl)thieno[3,2-c]pyridin-4-yl]-2-fluoro-N-[(3R)-3-piperidyl]-4-(triazolo[4,5-b]pyridin-3-yl)benzamide] was tested. Which pIC50 did it give?
Answer: 6.70

Question: Cn1cc(-c2ccc(C(=O)N(c3nccc4sc(-c5ccc6c(c5)NC(=O)C6)cc34)[C@@H]3CCCNC3)c(F)c2)nn1 [Example 544] was tested. Which pIC50 did it give?
Answer: 5.74

Question: With Cc1cccc2ccnc(N(C(=O)c3cccc(C#CCCC(=O)O)c3)[C@@H]3CCCNC3)c12 [Example 590, (R)-5-(3-((8-methylisoquinolin-1-yl)(piperidin-3-yl)carbamoyl)phenyl)pent-4-ynoic acid] as the molecule, how does the pIC50 read?
Answer: < 5.00

Question: With O=C(c1ccc(-n2nnc3cccnc32)cc1F)N(c1nccc2sc(-c3nc4ccccn4n3)cc12)[C@@H]1CCCNC1 [Example 450, 2-fluoro-N-[(3R)-3-piperidyl]-N-[2-([1,2,4]triazolo[1,5-a]pyridin-2-yl)thieno[3,2-c]pyridin-4-yl]-4-(triazolo[4,5-b]pyridin-3-yl)benzamide] as the molecule, how does the pIC50 read?
Answer: 6.52

Question: Cn1cc(-c2ccc(C(=O)N(c3nccc4cc(Cc5cccnc5)ccc34)[C@@H]3CCCNC3)c(F)c2)nn1 [Example 828, (R)-2-fluoro-4-(1-methyl-1H-1,2,3-triazol-4-yl)-N-(piperidin-3-yl)-N-(6-(pyridin-3-ylmethyl)isoquinolin-1-yl)benzamide] was tested. Which pIC50 did it give?
Answer: 6.00

Question: With Cc1cccc2ccnc(N(C(=O)c3ccc(Nc4nccc(N5CCNCC5)n4)cc3F)[C@@H]3CCCNC3)c12 [Example 718, (R)-2-fluoro-N-(8-methylisoquinolin-1-yl)-4-((4-(piperazin-1-yl)pyrimidin-2-yl)amino)-N-(piperidin-3-yl)benzamide] as the molecule, how does the pIC50 read?
Answer: 6.74

Question: How did the pIC50 turn out when O=C(c1ccc(-n2nnc3cccnc32)cc1F)N(c1nccc2cc(-c3ncco3)ccc12)[C@@H]1CCCNC1 [Example 366, (R)-4-(3H-[1,2,3]triazolo[4,5-b]pyridin-3-yl)-2-fluoro-N-(6-(oxazol-2-yl)isoquinolin-1-yl)-N-(piperidin-3-yl)benzamide] was run?
Answer: 6.54

Question: With O=C(c1ccc(-n2nnc3cccnc32)cc1F)N(c1cc(/C=C/c2cccnc2)ccn1)[C@@H]1CCCNC1 [Example 431, 2-fluoro-N-[(3R)-3-piperidyl]-N-[4-[(E)-2-(3-pyridyl)vinyl]-2-pyridyl]-4-(triazolo[4,5-b]pyridin-3-yl)benzamide] as the molecule, how does the pIC50 read?
Answer: 5.64
